Assay results reported in US20240342227A1, “COMBINATION OF E. FAECALIS AND AN ANTI-INFLAMMATORY AGENT AND USES THEREOF IN THE PREVENTION AND/OR TREATMENT OF RESPIRATORY DISEASES” (INSTITUT NATIONAL DE RECHERCHE POUR L'AGRICULTURE, …, priority 2021, published 2024).
Entries after “also recorded” stand apart in the source; their conditions may differ.

Tested on: BEAS-2B cells
Assay: IL-8 release induced by TNF-α on BEAS-2B cells (ELISA on supernatant after 6 h)
Type: cell-based, human
Protocol: BEAS-2B cells were co-incubated with TNF-α (1 pg/mL) alone or with different doses of budesonide (1.5; 0.75; 0.5; 0.1 nM). After 6 hours of incubation, the IL-8 concentration was measured in the supernatant. IL-8 levels are expressed as a percentage of the IL-8 level induced by stimulation with TNF-α for 6 hours. The results correspond to the mean+SEM for at least 3 experiments, n=6-12 technical replicates. *p<0.05 and ***p<0.001 compared with the TNF-α control group.
BEAS-2B cells were co-incubated with TNF-α (1 pg/mL) alone or with a strain of E. faecalis (CNCM I-4969; I-5701; I-5699) MOI 10:1, and/or 0.1 nM of budesonide, or 0.5 nM of budesonide. After 6 hours of incubation, the IL-8 concentration was measured in the supernatant by ELISA. IL-8 levels are expressed as a percentage of the IL-8 level induced by stimulation with TNF-α for 6 hours. The results correspond to the median of 3 experiments, n=9 technical replicates. *p<0.05 and ***p<0.001 compared with the TNF-α control group, by a Kruskal-Wallis non-parametric test followed by Dunn's post-test.
Human bronchial cells (BEAS-2B) are cultured and a pro-inflammatory situation is induced via the addition of TNF-α to the medium. The BEAS-2B cells then respond by releasing IL-8 into the medium. The IL-8 assay after 6 hours is used to estimate the activation state of the cells, which can be reduced by adding an anti-inflammatory agent.

In the case of `CCCC1O[C@@H]2C[C@H]3[C@@H]4CCC5=CC(=O)C=C[C@]5(C)[C@H]4[C@@H](O)C[C@]3(C)[C@]2(C(=O)CO)O1` (stereo partly drawn) [budesonide], the inhibition at 0.0005 µM (Homo sapiens, BEAS-2B, budesonide alone at 5-times higher dose (0.5 nM), TNF-α-stimulated BEAS-2B) is reported as 50%, the “inhibition of IL-8 release” value (budesonide alone at 5-times higher dose (0.5 nM), TNF-α-stimulated BEAS-2B, 0.0005 µM) is reported as 55% and the “effect on the release of IL-8 induced by TNF-α” value (budesonide alone, 0.1 nM, BEAS-2B) is reported as “do not have any effect; also recorded: no effect”.
